The results in this text go back to PubChem BioAssay (NCI).

Several values for one entry are separate records, joined by “and”; a condition that tells them apart may be missing. Identical values can stand only once.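 In this assay, cells in 96-well plates receive the compound at five concentrations for 48 hours. Endpoints are linearly interpolated between the surrounding concentrations. GI50: concentration for 50% inhibition of growth. TGI: total growth inhibition.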

Among the test systems are CAKI-1 renal; COLO 205 colon; HOP-92 NSCLC; IGROV1 ovarian; MALME-3M melanoma; NCI-H460 lung; OVCAR-8 ovarian; SK-MEL-2 melanoma; SN12C renal; TK-10 renal.
Common to all, as to assay: DTP human tumour cell line panel, 48 h

Usually TGI stands for the concentration at which net growth stops. Turning to `N#Cc1nc(Nc2ccc([N+](=O)[O-])cc2)sc1N`, the TGI with CAKI-1 renal is 56.7 µM; with COLO 205 colon it was over 100 µM; in the experiment with HOP-92 NSCLC, 75 µM; in the experiment on IGROV1 ovarian, over 100 µM; in the experiment with MALME-3M melanoma it was over 91.4 µM; in the experiment with NCI-H460 lung, over 100 µM. The TGI is over 100 µM in the experiment on OVCAR-8 ovarian, 53.2 µM in the experiment with SK-MEL-2 melanoma, over 74.6 µM with SN12C renal and over 77 µM with TK-10 renal.
As a reminder, the GI50 is the concentration that inhibits growth by half. As for `Cc1ccccc1NC(=O)c1sc2nc3c(cc2c1N)C(=O)CCC3`, the GI50 with CAKI-1 renal is 6.74 µM; in the experiment on COLO 205 colon it was 2.13 µM; in the experiment with HOP-92 NSCLC, over 100 µM; with IGROV1 ovarian, 5.26 µM; with MALME-3M melanoma, 3.54 µM; in the experiment on NCI-H460 lung, 2.63 µM. The GI50 with OVCAR-8 ovarian is 4.89 µM; in the experiment with SK-MEL-2 melanoma, 0.548 µM; in the experiment with SN12C renal, 5.53 µM; with TK-10 renal, 4.05 µM. Also, the TGI in the experiment with CAKI-1 renal is over 100 µM; in the experiment on COLO 205 colon, 6.69 µM; in the experiment with HOP-92 NSCLC, over 100 µM; in the experiment on IGROV1 ovarian, over 100 µM; with MALME-3M melanoma, over 100 µM; in the experiment on NCI-H460 lung it was 10.6 µM. In addition, the TGI in the experiment with OVCAR-8 ovarian, with SK-MEL-2 melanoma, in the experiment with SN12C renal and with TK-10 renal was over 100 µM in each case.
Take `CCCCc1nc2cc(/C=C/C(=O)NO)ccc2n1CCN(CC)CC`: the GI50 with CAKI-1 renal was 0.237 µM; in the experiment on COLO 205 colon, 0.138 µM; with HOP-92 NSCLC it was 0.0821 µM; in the experiment on IGROV1 ovarian, 0.733 µM; with MALME-3M melanoma, 0.153 µM; in the experiment with NCI-H460 lung it was 0.312 µM. The GI50 in the experiment on OVCAR-8 ovarian is 0.104 µM; in the experiment on SK-MEL-2 melanoma, 0.153 µM; with SN12C renal, 0.489 µM; in the experiment on TK-10 renal, 0.116 µM. The TGI with CAKI-1 renal was 0.943 µM; in the experiment with COLO 205 colon it was 0.298 µM; in the experiment with HOP-92 NSCLC, 0.456 µM; with IGROV1 ovarian, 5.67 µM; in the experiment with MALME-3M melanoma, 22.2 µM; in the experiment on NCI-H460 lung, over 100 µM. Further, the TGI in the experiment on OVCAR-8 ovarian stood at 5.54 µM; in the experiment with SK-MEL-2 melanoma, 0.506 µM; in the experiment on SN12C renal, 30.1 µM; with TK-10 renal, 0.598 µM.
`CC(C)(CCC(C)(C)c1ccccc1)c1ccccc1`: the TGI is 48.2 µM with CAKI-1 renal; 33.5 µM in the experiment on COLO 205 colon; 37.9 µM in the experiment with HOP-92 NSCLC; 79.7 µM with IGROV1 ovarian; 30 µM with MALME-3M melanoma; 31.9 µM with NCI-H460 lung. Besides, the TGI in the experiment with OVCAR-8 ovarian came to 75.9 µM; in the experiment with SK-MEL-2 melanoma, 31.5 µM; in the experiment on SN12C renal, 32.7 µM; in the experiment on TK-10 renal, 46.4 µM.
As for `CC(C)c1ccc(O)c(=O)cc1`, the GI50 is 8.54 µM with CAKI-1 renal; 3.83 µM in the experiment with COLO 205 colon; 3.12 µM in the experiment with HOP-92 NSCLC; 7.48 µM with IGROV1 ovarian; 19.9 µM with MALME-3M melanoma; 2.66 µM with NCI-H460 lung. In addition, the GI50 was 3.54 µM in the experiment with OVCAR-8 ovarian, 34.5 µM in the experiment with SK-MEL-2 melanoma, 5.85 µM in the experiment on SN12C renal and 39.7 µM with TK-10 renal. Further, the TGI with CAKI-1 renal was over 70.1 µM; in the experiment on COLO 205 colon, 30.1 µM; in the experiment with HOP-92 NSCLC, over 100 µM; in the experiment with IGROV1 ovarian, over 100 µM; in the experiment with MALME-3M melanoma it was > 72 µM and 66.6 µM; in the experiment with NCI-H460 lung it was 81.4 µM. The TGI with OVCAR-8 ovarian is over 100 µM; in the experiment with SK-MEL-2 melanoma it was 39 µM; in the experiment with SN12C renal, over 100 µM; in the experiment on TK-10 renal, over 100 µM.
For the compound `N#Cc1ccc2oc3ccc(C#N)cc3c(=O)c2c1`, the TGI was over 100 µM in the experiment on CAKI-1 renal; over 100 µM in the experiment on COLO 205 colon; over 100 µM in the experiment with HOP-92 NSCLC; over 100 µM in the experiment on IGROV1 ovarian; 50.8 µM with MALME-3M melanoma; 37.4 µM in the experiment on NCI-H460 lung. Further, the TGI in the experiment on OVCAR-8 ovarian was over 100 µM; in the experiment with SK-MEL-2 melanoma it was 37.4 µM; in the experiment on SN12C renal, over 100 µM; in the experiment on TK-10 renal, 73.4 µM.
`NCC(=O)CCC(=O)O`: the GI50 in the experiment with CAKI-1 renal, in the experiment with COLO 205 colon, in the experiment on HOP-92 NSCLC, in the experiment with IGROV1 ovarian, in the experiment on MALME-3M melanoma and in the experiment with NCI-H460 lung was over 100 µM throughout. In addition, the GI50 with OVCAR-8 ovarian, with SK-MEL-2 melanoma, in the experiment on SN12C renal and in the experiment on TK-10 renal was over 100 µM in each case. Also, the total growth inhibition concentration (TGI) in the experiment on CAKI-1 renal, in the experiment with COLO 205 colon, with HOP-92 NSCLC, in the experiment with IGROV1 ovarian, in the experiment with MALME-3M melanoma and in the experiment on NCI-H460 lung was over 100 µM in each case. For the same compound, the TGI with OVCAR-8 ovarian, in the experiment with SK-MEL-2 melanoma, with SN12C renal and in the experiment on TK-10 renal was over 100 µM in each case.
On to `COC(=O)c1ccccc1N=Cc1ccc(N(CCC#N)S(=O)(=O)c2ccccc2)cc1`, for which the concentration for total growth inhibition (TGI) with CAKI-1 renal, in the experiment with COLO 205 colon, in the experiment with HOP-92 NSCLC, with IGROV1 ovarian, in the experiment on MALME-3M melanoma and in the experiment with NCI-H460 lung was over 100 µM in each case. In addition, the TGI with OVCAR-8 ovarian, with SK-MEL-2 melanoma, in the experiment with SN12C renal and with TK-10 renal was over 100 µM throughout.
For `O=C1c2ccccc2C2(O)Oc3cccc(O)c3C12O` (stereo not given), the TGI in the experiment on CAKI-1 renal, with COLO 205 colon, in the experiment on HOP-92 NSCLC, in the experiment with IGROV1 ovarian, with MALME-3M melanoma and with NCI-H460 lung was over 100 µM each time. Moreover, the TGI in the experiment on OVCAR-8 ovarian, in the experiment on SK-MEL-2 melanoma, with SN12C renal and in the experiment on TK-10 renal was over 100 µM in each case.
`Nc1c(O)c(S(=O)(=O)O)c(O)c2c1C(=O)c1ccccc1C2=O`: the GI50 in the experiment with CAKI-1 renal is 2.34 µM; with COLO 205 colon, 1.61 µM; with HOP-92 NSCLC, 1.5 µM; with IGROV1 ovarian, 3.29 µM; in the experiment with MALME-3M melanoma it was 2.61 µM; in the experiment with NCI-H460 lung, 2.86 µM. Further, the GI50 in the experiment with OVCAR-8 ovarian was 2.98 µM; with SK-MEL-2 melanoma, 2.25 µM; in the experiment on SN12C renal, 3.29 µM; in the experiment on TK-10 renal, 2.91 µM. The TGI is 7.26 µM in the experiment on CAKI-1 renal; 3.01 µM in the experiment with COLO 205 colon; 4.65 µM with HOP-92 NSCLC; over 100 µM with IGROV1 ovarian; 8.36 µM in the experiment on MALME-3M melanoma; 22 µM in the experiment with NCI-H460 lung. For the same compound, the TGI in the experiment with OVCAR-8 ovarian worked out at 13.4 µM; with SK-MEL-2 melanoma, 6.21 µM; with SN12C renal, 11.6 µM; in the experiment with TK-10 renal, 9.73 µM.
